Experimental data taken from patent US4933332A, “11-desoxy-17-α-hydroxycorticosterone derivatives” (priority 1988, dated 1990).
Where “and” joins values, the source holds several entries; their conditions need not be identical. Identical values can stand only once.

Key:
[1] = test system: L 1210; experiment: Antitumor effect on grafted hemoblastoses (L 1210), extension of lifespan; type: in vivo, mice and rats; conditions: in vivo, sc
[2] = test system: P-388; experiment: Antitumor effect on grafted hemoblastoses (P-388), extension of lifespan; type: in vivo, mice and rats; conditions: in vivo
[3] = test system: La; set-up: species or system mice and rats; conditions: in vivo
[4] = test system: Viral leukosis Mazurenko LMC-1; experiment: Antitumor effect on grafted hemoblastoses (LMC-1), extension of lifespan; type: in vivo, mice and rats; conditions: in vivo
[5] = test system: S-37; experiment: Antitumor effect on grafted solid tumor S-37; type: in vivo, mice and rats; conditions: in vivo
[6] = test system: S-180; set-up: species or system mice and rats; conditions: in vivo
[7] = test system: Lewis lung carcinoma LL; experiment: Antitumor effect on grafted Lewis lung carcinoma LL; type: in vivo, mice and rats; conditions: in vivo
[8] = test system: Hepatoma G-22c; experiment: Antitumor effect on grafted hepatoma G-22c; type: in vivo, mice and rats; conditions: in vivo
[9] = test system: Lung adenocarcinoma RL-67; experiment: Duration of the antitumor effect, lung adenocarcinoma RL-67; type: in vivo, mice and rats
Description: (§1) For the study of the antitumor activity of the compounds according to the present invention use was made of regrafted hemoblastoses, grafted solid tumors, induced and spontaneous tumors of mice and rats. The following models were used: L 1210, P-388, hemocytoblastosis La, MOPC-406, viral lympholeukosis Mazurenko LMC-1, Ca-755, mammary carcinoma metastasizing into lungs KML, alveolar mammary cancer RMK-1, small intenstine adenocarcinoma AKATON, large intestine adenocarcinoma AKATOL, Lewis lung carcinoma LL, lung adenocarcinoma RL-67, hepatomae G-22c, G-60, G-61, sarcomae S-37 and S-180, DMBA (dimethylbenzanthracene)-induced and spontaneous mammary tumors, and […] (dimethylhydrazine)-induced tumors of the large intestine.
(§2) The studies were carried out on line mice and their first-generation hybrids, as well as on mongrel mice and rats.
(§3) The compounds were administered to the animals hypodermally in kernel oil. For the purpose of comparison, a known hormonocytostatic estracyte (estra-1,3,5-(10)treine-3,17β-diol-3N-[bis-(2-chloroethyl)carbamate-17-sodium phosphate] was used which was administered hypodermally in a solution of a 0.9% NaCl, chlorphenacyl and chloroambucyl which were administered intraperitoneally in a 10% solution of ethanol, sarcolysine (β-[p-di(2-chloroethyl)aminophenyl]-α-alanine hydrochloride)--intraperitoneally in a 0.9% solution of NaCl, prednisolone (pregnadiene-1,4-triol-11β,17α,21-dione-3,20)--per os in a starch size.
(§4) Criteria of the antitumor activity of the compounds according to the present invention are: extension of the lifespan of the animals (ELA, %) and tumor growth inhibition (TGI, %). [formula] T--average lifespan of the treated animals; C--average lifespan of the control animals. [formula] O--average tumor volume in the group of treated animals; K--average tumor volume in the group of control animals.

[10] = test system: Breast carcinoma metastasizing into lungs KML; experiment: Duration of the antitumor effect, breast carcinoma KML; type: in vivo, mice and rats
Description: as §1, §2, §3, §4

[11] = test system: Small intestine adenocarcinoma AKATON; experiment: Duration of the antitumor effect, small intestine adenocarcinoma AKATON; type: in vivo, mice and rats
Description: as §1, §2, §3, §4

[12] = test system: DMBA-induced mammary tumors of rats; experiment: Effect on DMBA-induced breast tumors in repeated treatment courses; type: in vivo
Description: as §1, §3, §4
In the case of using spontaneous or induced tumors, by means of carcinogenic substances, the criteria of the antitumor effect are: TGI, % or decrease in the tumor size, %, as compared to its initial value. The treatment of spontaneous and induced tumors was initiated after achieving, by these tumors, of a particular size excluding the possibility of a spontaneous regression.

[13] = test system: adrenalectomized rat youngsters; experiment: Lifespan of adrenalectomized rat youngsters (biological test for the glucocorticoidal activity); type: in vivo; conditions: 25-days adrenalectomized rats
[14] = test system: animals; experiment: Estral response in animals; conditions: in vivo
Description: (§5) The hormonal effect of 11-desoxy-17α-hydroxy-21-[p-di-(2-chloroethyl)aminophenylacetate] corticosterone is associated with exhibition of a glucocorticoidal activity thereby.

[15] = target: T1, cytoplasmatic receptors of glucocorticoids (Homo sapiens, UniProt P04150); experiment: Interaction with cytoplasmatic receptors of glucocorticoids; type: binding
T1 construct: cytoplasmatic receptors of glucocorticoids
T1 sequence (P04150 whole entry): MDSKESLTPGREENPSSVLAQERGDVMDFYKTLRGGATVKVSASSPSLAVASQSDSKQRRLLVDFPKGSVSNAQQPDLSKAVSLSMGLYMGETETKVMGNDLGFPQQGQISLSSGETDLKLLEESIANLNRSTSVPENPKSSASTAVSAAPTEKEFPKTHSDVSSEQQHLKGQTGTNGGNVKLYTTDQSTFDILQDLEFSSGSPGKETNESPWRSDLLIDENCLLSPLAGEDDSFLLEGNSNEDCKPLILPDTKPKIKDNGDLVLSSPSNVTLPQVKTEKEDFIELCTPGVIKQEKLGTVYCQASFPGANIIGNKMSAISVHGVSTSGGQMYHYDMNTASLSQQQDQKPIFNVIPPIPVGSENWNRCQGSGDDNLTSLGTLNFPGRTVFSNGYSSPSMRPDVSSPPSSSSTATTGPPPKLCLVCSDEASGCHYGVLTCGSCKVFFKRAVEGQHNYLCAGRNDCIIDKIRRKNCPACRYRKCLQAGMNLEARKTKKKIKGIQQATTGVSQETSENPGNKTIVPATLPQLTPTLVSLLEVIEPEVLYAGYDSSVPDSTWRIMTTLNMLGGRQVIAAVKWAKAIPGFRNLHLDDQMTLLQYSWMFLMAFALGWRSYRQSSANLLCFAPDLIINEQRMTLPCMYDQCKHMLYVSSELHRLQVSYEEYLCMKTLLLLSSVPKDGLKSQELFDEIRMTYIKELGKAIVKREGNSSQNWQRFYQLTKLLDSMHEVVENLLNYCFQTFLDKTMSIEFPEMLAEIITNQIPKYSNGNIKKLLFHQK
Description: as §5

[16] = test system: receptors of glucocorticoids in grafted tumors of animals (RL-67, G-60, G-61, G-22c, Ca-755, S-37, AKATOL, AKATON); experiment: Inhibition of specific combining of [^3 H]-dexamethazone in grafted tumors of animals; type: binding
Description: (§6) The inhibition, thereby, of a specific combining of [^3 H]-dexamethazone in tumors of animals reaches 70-100%. 11-Desoxy-17-α-hydroxy-21-[p-di(2-chloroethyl)aminophenylacetate] corticosterone also reacts with cytoplasmatic receptors of glucocorticoids in tumors in human beings.

[17] = test system: cytoplasmatic receptors of glucocorticoids in human lung cancer; experiment: Inhibition of specific combining of [^3 H]-dexamethazone, human lung cancer; type: binding
Description: as §6

[18] = test system: acceptor regions of chromatin of tumoral and normal cells (kidney tumor PA, normal kidney); experiment: Penetration into the cell nucleus and interaction with chromatin; set-up: species or system line Wistar; conditions: kidney tumor PA of rats
[19] = test system: DNA of sarcoma S-37 cells; experiment: Cross-linking and ruptures in DNA of tumoral cells (alkaline saccharose gradient sedimentation)
[20] = test system: DNA of normal (spleen) cells; experiment: Regeneration of injured DNA in normal tissue vs tumor tissue; conditions: compared with tumor tissue
[21] = test system: mice; conditions: mouse, in vivo

C[C@]12CCC(=O)C=C1CC[C@@H]1[C@@H]2CC[C@@]2(C)[C@H]1CC[C@]2(O)C(=O)COC(=O)Cc1ccc(N(CCCl)CCCl)cc1 [11-desoxy-17α-hydroxy-21-[p-di(2-chloroethyl)-aminophenylacetate] corticosterone]
Extension of the lifespan of the animals (ELA) [1]: 31%
Extension of the lifespan of the animals (ELA) [2]: 81%
Extension of the lifespan of the animals (ELA) [3]: 105%
Extension of the lifespan of the animals (ELA) [4]: 344%
cure [4]: 33%
Extension of the lifespan [5]: 42%
Maximum tumor growth inhibition [5]: 99%
Tumor growth inhibition [5]: 99% and 94% and 91%
recovery [5]: 28%
Maximum tumor growth inhibition ([5]; 45 mg/kg): 99%
Maximum tumor growth inhibition [6]: 93% and 92%
Maximum tumor growth inhibition [7]: 81%
Extension of the lifespan ([7]; 15 mg/kg): 38%
Tumor growth inhibition ([7]; 15 mg/kg): 76% and 56% and 39%
Maximum tumor growth inhibition ([7]; 45 mg/kg): 90%
Extension of the lifespan [8]: 65%
Maximum tumor growth inhibition [8]: 80%
Tumor growth inhibition [8]: 80% and 68% and 57%
Extension of the lifespan ([9]; 45 mg/kg × 1, day 2): 27%
Tumor growth inhibition ([9]; 45 mg/kg × 1, day 2, day 15 of experiment): 81%
Tumor growth inhibition ([9]; 45 mg/kg × 1, day 2, day 22 of experiment): 82%
Tumor growth inhibition ([9]; 45 mg/kg × 1, day 2, day 29 of experiment): 80%
Extension of the lifespan ([10]; 45 mg/kg × 1, day 10): 57%
Tumor growth inhibition ([10]; 45 mg/kg × 1, day 10, day 15 of experiment): 80%
Tumor growth inhibition ([10]; 45 mg/kg × 1, day 10, day 22 of experiment): 53%
Tumor growth inhibition ([10]; 45 mg/kg × 1, day 10, day 29 of experiment): 61%
Extension of the lifespan ([11]; 15 mg/kg/24 h × 5, days 2-6): 46%
Tumor growth inhibition ([11]; 15 mg/kg/24 h × 5, days 2-6, day 15 of experiment): 66%
Tumor growth inhibition ([11]; 15 mg/kg/24 h × 5, days 2-6, day 22 of experiment): 55%
Tumor growth inhibition ([11]; 15 mg/kg/24 h × 5, days 2-6, day 29 of experiment): 46%
Increased lifespan ([12]; DMBA-induced, rats, 15 mg/kg/24 h × 5, 2 courses, 5 weeks interval): 18%
Decrease or increase (+) of the tumor, % of the initial one ([12]; DMBA-induced, rats, 15 mg/kg/24 h × 5, 2 courses, 5 weeks interval, week 1): 33%
Decrease or increase (+) of the tumor, % of the initial one ([12]; DMBA-induced, rats, 15 mg/kg/24 h × 5, 2 courses, 5 weeks interval, week 2): 32%
Decrease or increase (+) of the tumor, % of the initial one ([12]; DMBA-induced, rats, 15 mg/kg/24 h × 5, 2 courses, 5 weeks interval, week 3): 11%
Decrease or increase (+) of the tumor, % of the initial one ([12]; DMBA-induced, rats, 15 mg/kg/24 h × 5, 2 courses, 5 weeks interval, week 4): 24%
Decrease or increase (+) of the tumor, % of the initial one ([12]; DMBA-induced, rats, 15 mg/kg/24 h × 5, 2 courses, 5 weeks interval, week 5): +26%
Decrease or increase (+) of the tumor, % of the initial one ([12]; DMBA-induced, rats, 15 mg/kg/24 h × 5, 2 courses, 5 weeks interval, week 6): 23%
Decrease or increase (+) of the tumor, % of the initial one ([12]; DMBA-induced, rats, 15 mg/kg/24 h × 5, 2 courses, 5 weeks interval, week 7): +3%
Decrease or increase (+) of the tumor, % of the initial one ([12]; DMBA-induced, rats, 15 mg/kg/24 h × 5, 2 courses, 5 weeks interval, week 8): 13%
reduction in size of induced tumors in breasts ([12]; compared to the size prior to the treatment): causes reduction in size of induced and spontaneous tumors
extension of lifespan of adrenalectomized rat youngsters [13]: 113%
estral response [14]: short-time estral response
Kd [15]: 95 nM
interaction with cytoplasmatic receptors of glucocorticoids ([15]; [^3 H]-dexamethazone): interacts with cytoplasmatic receptors of glucocorticoids and inhibits combining of [^3 H]-dexamethazone therewith
reaction with receptors of glucocorticoids in grafted tumors ([16]; RL-67, G-60, G-61, G-22c, Ca-755, S-37, AKATOL, AKATON): reacts with receptors of glucocorticoids in grafted tumors of animals
inhibition of specific combining of [^3 H]-dexamethazone ([16]; tumors of animals): 70-100%
inhibition of specific combining of [^3 H]-dexamethazone [17]: 83%
penetration into cell nucleus and interaction with chromatin [18]: penetrates into the cell nucleus and interacts with acceptor regions of chromatin of both tumoral and normal cells
number and duration of retention of cross-linking in DNA molecules of S-37 cells [19]: superior to chlorophenacyl
regeneration of injured DNA in normal tissue [20]: starts earlier than in the tumor tissue
toxicity lower than that of chlorophenacyl [21]: 3 times
